Test results as given in PubChem BioAssay (NCI).
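Step 1: Grow cells in 96-well plates. Step 2: Expose to compound for 48 hours at 5 concentrations. Step 3: Interpolate endpoints linearly; if unreached, use highest concentration. GI50 marks 50% less growth. At the TGI there is no net growth.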

Columns and labels:
Experiment in all cases: inhibition of tumour cell growth, NCI panel, 48 h
HS 578T breast = test system: HS 578T breast
DU-145 prostate = test system: DU-145 prostate
MDA-N = test system: MDA-N
MDA-MB-231 breast = test system: MDA-MB-231 breast
BT-549 breast = test system: BT-549 breast
MCF7 breast = test system: MCF7 breast

SMILES: CCNC(C)(C)C(SS)c1ccc(Br)cc1 (centres undefined)
- TGI (HS 578T breast): > 100 µM
- TGI (DU-145 prostate): > 100 µM
- TGI (MDA-N): > 100 µM
- TGI (MDA-MB-231 breast): > 100 µM
- TGI (BT-549 breast): > 100 µM
- TGI (MCF7 breast): > 100 µM

SMILES: Cc1c(C)c2c(c(C)c1NC(=O)/C=C\C(=O)O)CCC(C)(CCCC(C)CCCC(C)CCCC(C)C)O2 (centres undefined)
- GI50 (HS 578T breast): 1.89 µM
- TGI (HS 578T breast): 4.97 µM
- GI50 (DU-145 prostate): 1.69 µM
- TGI (DU-145 prostate): 3.05 µM
- GI50 (MDA-MB-231 breast): 1.94 µM
- TGI (MDA-MB-231 breast): 3.55 µM
- GI50 (BT-549 breast): 1.35 µM
- TGI (BT-549 breast): 2.69 µM
- GI50 (MCF7 breast): 2.2 µM
- TGI (MCF7 breast): 5.32 µM

SMILES: O=[N+]([O-])c1cc([N+](=O)[O-])c(Cl)c(Cl)c1Cl
- GI50 (HS 578T breast): 2.26 µM
- TGI (HS 578T breast): 5.31 µM
- GI50 (DU-145 prostate): 1.57 µM
- TGI (DU-145 prostate): 2.98 µM
- GI50 (MDA-MB-231 breast): 1.71 µM
- TGI (MDA-MB-231 breast): 3.24 µM
- GI50 (BT-549 breast): 8.84 µM
- TGI (BT-549 breast): 21 µM

SMILES: Cc1cc(=O)oc2c(CN3CCCCC3)c(O)ccc12
- TGI (HS 578T breast): > 100 µM
- TGI (DU-145 prostate): > 100 µM
- TGI (MDA-N): > 100 µM
- TGI (MDA-MB-231 breast): > 100 µM
- TGI (BT-549 breast): > 100 µM
- TGI (MCF7 breast): > 100 µM

SMILES: O=C(/C=C/C12c3ccccc3C(c3ccccc31)C1C(=O)N(c3ccccc3)C(=O)C12)c1ccc(Cl)cc1 (centres undefined)
- GI50 (HS 578T breast): 1.82 µM
- TGI (HS 578T breast): 5.92 µM
- GI50 (DU-145 prostate): 1.77 µM
- TGI (DU-145 prostate): 4.03 µM
- GI50 (MDA-MB-231 breast): 1.64 µM
- TGI (MDA-MB-231 breast): 3.9 µM
- GI50 (BT-549 breast): 1.37 µM
- TGI (BT-549 breast): 2.88 µM
- GI50 (MCF7 breast): 0.885 µM
- TGI (MCF7 breast): > 100 µM

SMILES: N=Nc1c(OC(=O)Nc2ccccc2)[nH]c2ccccc12
- TGI (HS 578T breast): > 100 µM
- TGI (DU-145 prostate): 22.7 µM
- TGI (MDA-N): 61.8 µM
- TGI (MDA-MB-231 breast): 41.6 µM
- TGI (BT-549 breast): 27.6 µM
- TGI (MCF7 breast): 38.8 µM

SMILES: CCN(CC)C(=O)CC1=C(C)/C(=C/c2[nH]c(-c3ccc[nH]3)cc2OC)N=C1C
- GI50 (HS 578T breast): 0.656 µM
- TGI (HS 578T breast): 7.97 µM
- GI50 (DU-145 prostate): 0.546 µM
- TGI (DU-145 prostate): > 100 µM
- GI50 (MDA-MB-231 breast): 0.213 µM
- TGI (MDA-MB-231 breast): 0.909 µM
- GI50 (BT-549 breast): 0.787 µM
- TGI (BT-549 breast): 47.1 µM
- GI50 (MCF7 breast): 0.458 µM
- TGI (MCF7 breast): 17.9 µM

SMILES: COc1ccc(-c2nn(-c3ccc(NC(=O)c4ccc(Cl)c(C(F)(F)F)c4)cc3)cc2-c2ccncc2)cc1Cl
- GI50 (HS 578T breast): 0.201 µM
- TGI (HS 578T breast): 0.696 µM
- GI50 (DU-145 prostate): 4.6 µM
- TGI (DU-145 prostate): > 100 µM
- GI50 (MDA-MB-231 breast): 0.317 µM
- TGI (MDA-MB-231 breast): 1.35 µM
- GI50 (BT-549 breast): 1.16 µM
- TGI (BT-549 breast): 96.9 µM
- GI50 (MCF7 breast): 1.59 µM
- TGI (MCF7 breast): > 100 µM

SMILES: CN1CCN(CCCOc2cccc3nc(Nc4ccc(Cl)c(F)c4)ccc23)CC1
- GI50 (HS 578T breast): 2.12 µM
- TGI (HS 578T breast): 5.77 µM
- GI50 (DU-145 prostate): 1.75 µM
- TGI (DU-145 prostate): 3.19 µM
- GI50 (MDA-MB-231 breast): 1.68 µM
- TGI (MDA-MB-231 breast): 3.39 µM
- GI50 (BT-549 breast): 2.4 µM
- TGI (BT-549 breast): 7.73 µM
- GI50 (MCF7 breast): 1.31 µM
- TGI (MCF7 breast): 2.77 µM

SMILES: O=C(Cn1c(=O)c(-c2ccccc2)nc2ccccc21)c1ccc(Cl)cc1
- GI50 (HS 578T breast): 43.5 µM
- TGI (HS 578T breast): > 100 µM
- GI50 (DU-145 prostate): 52.2 µM
- TGI (DU-145 prostate): > 100 µM
- GI50 (MDA-MB-231 breast): 40.9 µM
- TGI (MDA-MB-231 breast): > 100 µM
- GI50 (MCF7 breast): 71.2 µM
- TGI (MCF7 breast): > 100 µM

SMILES: Cc1oc2nc[nH]c(=O)c2c1C(=O)/C=C/c1ccc(Cl)cc1
- GI50 (HS 578T breast): 3.66 µM
- TGI (HS 578T breast): > 100 µM
- GI50 (DU-145 prostate): 2.82 µM
- TGI (DU-145 prostate): 11.3 µM
- GI50 (MDA-MB-231 breast): 2.64 µM
- TGI (MDA-MB-231 breast): 14.6 µM
- GI50 (BT-549 breast): 2.24 µM
- TGI (BT-549 breast): 6.55 µM
- GI50 (MCF7 breast): 1.39 µM
- TGI (MCF7 breast): 12.3 µM

SMILES: NC(=O)c1cc(-c2ccncc2)cc(-c2ccccc2)c1N
- GI50 (HS 578T breast): 6.35 µM
- TGI (HS 578T breast): > 23.6 µM
- GI50 (DU-145 prostate): > 22.9 µM
- TGI (DU-145 prostate): > 25 µM
- GI50 (MDA-MB-231 breast): 12.2 µM
- TGI (MDA-MB-231 breast): > 25 µM
- GI50 (BT-549 breast): 22.5 µM
- TGI (BT-549 breast): > 25 µM
- GI50 (MCF7 breast): > 25 µM
- TGI (MCF7 breast): > 25 µM

SMILES: CCCCN(CCCC)c1ccc(C(=N)c2ccc(N(C)C)cc2)cc1
- GI50 (HS 578T breast): 1.18 µM
- TGI (HS 578T breast): 3.28 µM
- GI50 (DU-145 prostate): 1.03 µM
- TGI (DU-145 prostate): 2.23 µM
- GI50 (MDA-MB-231 breast): 1.32 µM
- TGI (MDA-MB-231 breast): 2.88 µM
- GI50 (BT-549 breast): 1.29 µM
- TGI (BT-549 breast): 2.64 µM
- GI50 (MCF7 breast): 0.377 µM
- TGI (MCF7 breast): 1.51 µM

SMILES: COc1cc(N2CCN(C(C)C)CC2)ccc1Nc1nc(Nc2cccc3ncccc23)c2cc[nH]c2n1
- GI50 (HS 578T breast): 5.42 µM
- TGI (HS 578T breast): 24.3 µM
- GI50 (DU-145 prostate): 6.55 µM
- TGI (DU-145 prostate): 24.6 µM
- GI50 (MDA-MB-231 breast): 4.37 µM
- TGI (MDA-MB-231 breast): 11 µM
- GI50 (BT-549 breast): 4.75 µM
- TGI (BT-549 breast): 13.6 µM
- GI50 (MCF7 breast): 1.3 µM
- TGI (MCF7 breast): > 25 µM

SMILES: Cc1cc(Cc2cc(C)c(O)c(C)c2)cc(C)c1O
- GI50 (HS 578T breast): 2.58 µM
- TGI (HS 578T breast): 12.5 µM
- GI50 (DU-145 prostate): 14.6 µM
- TGI (DU-145 prostate): > 100 µM
- GI50 (MDA-MB-231 breast): 6.85 µM
- TGI (MDA-MB-231 breast): 38.3 µM
- GI50 (BT-549 breast): 3.78 µM
- TGI (BT-549 breast): 17.6 µM
- GI50 (MCF7 breast): 3.83 µM
- TGI (MCF7 breast): 53.7 µM

SMILES: C=CCn1c(=O)c2cnc(Nc3ccc(N4CCN(C)CC4)cc3)nc2n1-c1ccc2c(n1)[C@@](O)(CC)CC2
- GI50 (HS 578T breast): 0.755 µM
- TGI (HS 578T breast): 12.4 µM
- GI50 (DU-145 prostate): 0.939 µM
- TGI (DU-145 prostate): 35.3 µM
- GI50 (MDA-MB-231 breast): 0.558 µM
- TGI (MDA-MB-231 breast): 4.19 µM
- GI50 (BT-549 breast): 0.287 µM
- TGI (BT-549 breast): 3.46 µM
- GI50 (MCF7 breast): 0.344 µM
- TGI (MCF7 breast): > 42.8 µM
